The values below come from publication PMC5064022, “KCNE1 induces fenestration in the Kv7.1/KCNE1 channel complex that allows for highly specific pharmacological targeting” (Nature Communications, 2016).

Bounds are passed on as bounds.

Holding throughout (type): cell-based
One assay concerns the target Kv7.1/KCNE1 (Homo sapiens, UniProt P15382+P51787). The assay can be described thus: Two electrode voltage clamp of Kv7.1/KCNE1 currents in Xenopus oocytes. The procedure: Template cDNAs (wildtype or mutant human Kv7.1 in pSGEM, wildtype human KCNE1 in pSP64) were linearized with a suitable restriction enzyme (Nhe I/pSGEM, Eco RI/pSP64). cRNA was synthesized from 1 μg linearized cDNA by in vitro transcription (mMessage mMachine T7 or SP6 kit, Ambion, Life Technologies Darmstadt, Germany). cRNA concentrations were determined by photometry (Nanodrop, Peqlab, Erlangen, Germany) and cRNA quality was checked by agarose gel electrophoresis.
Oocytes were commercially obtained from EcoCyte Bioscience (Castrop-Rauxel, Germany). Injection of stage 4 or 5 oocytes was performed using a nanoliter injector 2000 (WPI, Berlin, Germany). For standard pharmacological measurements, each oocyte was injected with 5 ng Kv7.1 cRNA alone or with 1 ng KCNE1 cRNA. To investigate the influence of KCNE1 on AC-1 sensitivity of Kv7.1 tetramers, 5 ng Kv7.1 cRNA was injected with different amounts of KCNE1 cRNA (0 ng, 0.005 ng, 0.05 ng, 0.5 ng and 5 ng). Injected oocytes were maintained in an incubator at 17 °C for 4–5 days in standard Barth solution (EcoCyte Bioscience, Castrop-Rauxel, Germany) supplemented with 90 μg ml^−1 theophylline, 63 μg ml^−1 penicillin, 40 μg ml^−1 streptomycin, and 100 μg ml^−1 gentamycin until used for two electrode voltage clamp (TEVC) measurements.
TEVC measurements were performed using a TurboTec-10CD amplifier (npi Electronic, Tamm, Germany) and an ITC-16 AD/DA-interface (Instrutech Corporation, Port Washington, New York, USA). Pulse and PulseFit software (HEKA, Lambrecht/Pfalz, Germany) was used for data acquisition and analysis. During TEVC recordings, oocytes were constantly perfused with control solution (ND96, containing in mM: 96 NaCl, 4 KCl, 1.8 CaCl2, 1 MgCl2, 5 mM HEPES, pH 7.6 supplemented 0.1–0.3% DMSO). AC solutions were freshly prepared in ND96 from a 10 mM DMSO stock solution. Glass capillaries were pulled to a fine point to produce current and voltage electrodes that were back-filled with 3 M KCl. When filled with this solution, electrode resistances ranged from 0.5–1.5 MΩ. Different voltage pulse protocols were used as follows: (1) To study the inhibitory effect of different AC derivatives, Kv7.1/KCNE1 currents were elicited by repetitive 7 s pulses to +40 mV applied every 30 s from a holding potential of −80 mV. (2) To analyse the voltage dependence of channel activation, currents were elicited by 10 s pulses to test voltages between −100 and +60 mV, applied in 20 mV increments from a holding potential of −80 mV. Tail currents were recorded at −120 mV. For control we always expressed KCNE1 alone along mutant channels and mutant currents were only taken into account when it reached at least 2.5- to 3-fold the size of the background Xenopus-Kv7.1/hKCNE1 currents.
Electrophysiological data were analysed using PulseFit software (HEKA, Lambrecht/Pfalz, Germany) and GraphPad Prism (GraphPad Software, Inc., La Jolla, California, USA). Channel inhibition was determined as reduction of whole cell current amplitude at the end of a 7 s test pulse to +40 mV. The concentration of compound that caused half-maximal inhibition (IC50) were determined using the Hill equation: Idrug/Imax=1/(1+[C/IC50]^H), where Idrug is the current amplitude in the presence of the drug, Imax is the current amplitude before drug application, C is the drug concentration and H is the Hill coefficient.
Background: Two-electrode voltage clamp is typically applied to oocytes expressing channels or transporters.

In another assay the target is V241A/KCNE1 (Homo sapiens, UniProt P15382+P51787, V241A). The assay can be described thus: TEVC, mutant channel V241A/KCNE1 in oocytes. The following applies: Kv7.1 V241A mutant with KCNE1. From the text: (§1) Ala scanning was previously used to identify specific residues that form the putative binding sites for chromanol and benzodiazepine derivatives that are considered to be classical pore blockers of Kv7.1 channels. Here we applied Ala scanning to multiple segments of the Kv7.1 α-subunit to identify potential AC-1 interaction sites in the extended pore region of Kv7.1/KCNE1 channels (Fig. 3a). In cases where mutation to Ala precluded channel function, alternative residues were introduced. […] Instead, most of these crucial residues cluster around a ‘window' formed uniquely in the preopen–closed state model of the Kv7.1/KCNE1 channel[33] (Fig. 3c, magenta residues). […]
(§2) Template cDNAs (wildtype or mutant human Kv7.1 in pSGEM, wildtype human KCNE1 in pSP64) were linearized with a suitable restriction enzyme (Nhe I/pSGEM, Eco RI/pSP64). cRNA was synthesized from 1 μg linearized cDNA by in vitro transcription (mMessage mMachine T7 or SP6 kit, Ambion, Life Technologies Darmstadt, Germany). cRNA concentrations were determined by photometry (Nanodrop, Peqlab, Erlangen, Germany) and cRNA quality was checked by agarose gel electrophoresis. […]
(§3) TEVC measurements were performed using a TurboTec-10CD amplifier (npi Electronic, Tamm, Germany) and an ITC-16 AD/DA-interface (Instrutech Corporation, Port Washington, New York, USA). […] Tail currents were recorded at −120 mV. […]

A further assay concerns the target I274A/KCNE1 (Homo sapiens, UniProt P15382+P51787, I274A). The assay is described as follows: TEVC, mutant channel I274A/KCNE1 in oocytes. The settings on record: Kv7.1 I274A mutant with KCNE1.
Source text: as §1, §2, §3

The target in the next assay is T312S/KCNE1 (Homo sapiens, UniProt P15382+P51787, T312S). The assay can be described thus: TEVC, mutant channel T312S/KCNE1 in oocytes. The following applies: Kv7.1 T312S mutant with KCNE1.
Source text: as §1, §2, §3

For a further assay, the target named is I337V/KCNE1 (Homo sapiens, UniProt P15382+P51787, I337V). The assay can be described thus: TEVC, mutant channel I337V/KCNE1 in oocytes. The settings on record: Kv7.1 I337V mutant with KCNE1.
Source text: as §1, §2, §3

For a further assay, the system named is Kv7.1/KCNE2–5. The assay can be described thus: TEVC, Kv7.1 co-expressed with other KCNE isoforms. The following applies: 1 μM.
In another assay the test system is T1, Kv1.5.
T1 construct: expressed in transfected cells
The assay can be described thus: TEVC, Kv1.5 channels. The settings on record: 1 μM.

What is called inhibition is the drop in the measured response relative to a control, in per cent. Read a low inhibition as a response near the control.

`CC(C)(Oc1ccc(Cl)cc1)C(=O)NC1C2CC3CC1CC(NS(C)(=O)=O)(C3)C2` (stereo not drawn) [AC-1, 2-(4-chlorophenoxy)-2-methyl-N-[5-[(methylsulfonyl)amino]tricyclo[3.3.1.13,7]dec-2-yl]-propanamide]: at Kv7.1/KCNE1 (300 nM), the “effect on channel activation kinetics” value is given as “strong deceleration of channel activation”. Besides, the “effect on rate of current deactivation” value at Kv7.1/KCNE1 (300 nM, activated by 5 s pulse to +40 mV) is reported as “does not alter the rate of current deactivation”; at Kv7.1/KCNE1 (300 nM, activated by 5 s pulse to −20 mV) it was “decreases the rate of current deactivation”. The inhibition at 10 µM on Kv7.1/KCNE1 (10 µM, percent change in current amplitude at end of pulse to +40 mV) worked out at 89.2 ± 1.2%. On Kv7.1/KCNE1 (concentration-response at +40 mV, oocytes), the Hill-coeff. is 1.2 ± 0.1. In addition, the “maximum reduction of Kv7.1/KCNE1 channel currents” value at Kv7.1/KCNE1 (even at concentrations ∼100-fold greater than the IC50) is recorded as “about 90%”. The “higher voltages required to elicit measurable channel opening (depolarizing shift of activation)” value at Kv7.1/KCNE1 (in the presence of AC-1 (300 nM)) is on record as 20–40 mV. Besides, the “slope m of linear fit of τinhibition against AC-1 concentration” value at Kv7.1/KCNE1 (onset of inhibition, single exponential, y=m × log[AC−1]+b) is listed as −1.02±0.19. Also, the IC50 on Kv7.1/KCNE1 (wt, currents at end of 7 s pulse to +40 mV, holding −80 mV, oocytes, read-out: IC50 for inhibition of Kv7.1/KCNE1 channel currents) is 78.4 nM; against V241A/KCNE1, 234 ± 15 nM; at I274A/KCNE1 it was 327 ± 83 nM; on T312S/KCNE1, over 50000 nM; on I337V/KCNE1 it was 6000 ± 1600 nM. For the same compound, the “sensitivity of Kv7.1/KCNE2-5 currents” value in the assay on Kv7.1/KCNE2–5 was “insensitive”. Further, the “effect on Kv1.5” value with Kv1.5 is “does not affect”.
